# Assay results taken from patent publication US9527869B2, “Indolizine derivatives as phoshoinositide 3-kinases inhibitors” (CHIESI FARMACEUTICI S.P.A., priority 2014, dated 2016).
# Assays:
# Type in all cases: biochemical
# PI3Kα = target: T1, PI3Kα (Homo sapiens, UniProt P42336); test: In vitro determination of the PI3K enzyme inhibitory activity in the cell free assay (ADP-Glo Kinase Assay), PI3Kα; details: ATP 50 μM, read-out: PI3K alpha inhibition
# T1 construct: purchased Millipore Ltd (Billerica, Mass.)
# T1 sequence (P42336 whole entry): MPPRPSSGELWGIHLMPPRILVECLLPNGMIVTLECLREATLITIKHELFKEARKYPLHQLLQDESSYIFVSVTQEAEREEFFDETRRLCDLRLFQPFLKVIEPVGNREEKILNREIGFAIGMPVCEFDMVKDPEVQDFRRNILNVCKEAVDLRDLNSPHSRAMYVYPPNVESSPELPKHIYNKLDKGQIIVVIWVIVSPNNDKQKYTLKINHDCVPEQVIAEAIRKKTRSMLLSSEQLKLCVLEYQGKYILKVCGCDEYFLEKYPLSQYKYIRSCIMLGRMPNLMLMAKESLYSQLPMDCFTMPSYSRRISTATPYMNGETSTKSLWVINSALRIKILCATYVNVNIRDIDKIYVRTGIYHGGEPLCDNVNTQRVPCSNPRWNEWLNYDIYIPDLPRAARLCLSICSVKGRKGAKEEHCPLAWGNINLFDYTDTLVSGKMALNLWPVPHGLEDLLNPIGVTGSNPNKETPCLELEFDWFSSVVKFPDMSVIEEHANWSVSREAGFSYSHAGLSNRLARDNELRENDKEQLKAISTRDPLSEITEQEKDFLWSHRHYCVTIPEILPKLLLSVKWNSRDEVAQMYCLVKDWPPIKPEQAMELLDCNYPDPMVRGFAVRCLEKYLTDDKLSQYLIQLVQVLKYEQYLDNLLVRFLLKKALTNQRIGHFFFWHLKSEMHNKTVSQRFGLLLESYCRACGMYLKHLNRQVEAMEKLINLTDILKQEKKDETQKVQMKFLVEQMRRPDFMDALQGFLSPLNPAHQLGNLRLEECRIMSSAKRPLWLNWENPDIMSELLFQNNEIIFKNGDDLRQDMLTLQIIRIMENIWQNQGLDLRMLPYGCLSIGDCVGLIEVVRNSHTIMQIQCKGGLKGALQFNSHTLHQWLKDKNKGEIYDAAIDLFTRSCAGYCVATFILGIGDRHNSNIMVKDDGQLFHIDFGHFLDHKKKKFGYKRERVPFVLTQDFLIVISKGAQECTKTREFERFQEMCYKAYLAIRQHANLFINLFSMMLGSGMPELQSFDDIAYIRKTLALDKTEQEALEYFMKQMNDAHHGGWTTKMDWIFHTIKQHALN
# T1 sequence (P27986 whole entry partner): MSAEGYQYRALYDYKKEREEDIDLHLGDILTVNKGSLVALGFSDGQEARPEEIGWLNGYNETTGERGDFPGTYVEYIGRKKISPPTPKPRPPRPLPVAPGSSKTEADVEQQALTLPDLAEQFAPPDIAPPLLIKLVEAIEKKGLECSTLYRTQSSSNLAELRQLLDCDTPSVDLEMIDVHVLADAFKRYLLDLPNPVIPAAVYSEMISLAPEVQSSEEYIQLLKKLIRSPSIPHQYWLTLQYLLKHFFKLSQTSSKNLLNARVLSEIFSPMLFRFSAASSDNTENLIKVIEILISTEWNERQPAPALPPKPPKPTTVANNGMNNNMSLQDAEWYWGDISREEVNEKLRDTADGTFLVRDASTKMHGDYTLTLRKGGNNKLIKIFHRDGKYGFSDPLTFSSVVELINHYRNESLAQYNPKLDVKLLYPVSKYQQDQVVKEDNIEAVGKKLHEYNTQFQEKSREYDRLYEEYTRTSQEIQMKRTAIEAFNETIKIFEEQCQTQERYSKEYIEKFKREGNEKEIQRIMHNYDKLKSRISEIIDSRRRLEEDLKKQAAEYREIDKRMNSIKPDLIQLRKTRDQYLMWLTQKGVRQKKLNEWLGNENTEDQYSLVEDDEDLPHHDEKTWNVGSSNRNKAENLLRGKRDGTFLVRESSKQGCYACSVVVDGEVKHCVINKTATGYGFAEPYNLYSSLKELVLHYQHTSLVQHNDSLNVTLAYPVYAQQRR
# Method in brief: (§1)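 IC50 values came from four-parameter logistic fitting of ADP-Glo luminescence after 60 min kinase reactions at room temperature. ATP (final) was set per isoform: α 50 μM, β 100 μM, γ 30 μM, δ 80 μM. Substrates were phosphatidylinositol and phosphatidylserine (50 μM in 2× Tris pH 7.5 buffer), with human recombinant enzymes.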
# PI3Kβ = target: T2, PI3Kβ (Homo sapiens, UniProt P42338); test: In vitro determination of the PI3K enzyme inhibitory activity in the cell free assay (ADP-Glo Kinase Assay), PI3Kβ; details: ATP 100 μM, read-out: PI3K beta inhibition
# T2 construct: purchased Millipore Ltd (Billerica, Mass.)
# T2 sequence (P42338 whole entry): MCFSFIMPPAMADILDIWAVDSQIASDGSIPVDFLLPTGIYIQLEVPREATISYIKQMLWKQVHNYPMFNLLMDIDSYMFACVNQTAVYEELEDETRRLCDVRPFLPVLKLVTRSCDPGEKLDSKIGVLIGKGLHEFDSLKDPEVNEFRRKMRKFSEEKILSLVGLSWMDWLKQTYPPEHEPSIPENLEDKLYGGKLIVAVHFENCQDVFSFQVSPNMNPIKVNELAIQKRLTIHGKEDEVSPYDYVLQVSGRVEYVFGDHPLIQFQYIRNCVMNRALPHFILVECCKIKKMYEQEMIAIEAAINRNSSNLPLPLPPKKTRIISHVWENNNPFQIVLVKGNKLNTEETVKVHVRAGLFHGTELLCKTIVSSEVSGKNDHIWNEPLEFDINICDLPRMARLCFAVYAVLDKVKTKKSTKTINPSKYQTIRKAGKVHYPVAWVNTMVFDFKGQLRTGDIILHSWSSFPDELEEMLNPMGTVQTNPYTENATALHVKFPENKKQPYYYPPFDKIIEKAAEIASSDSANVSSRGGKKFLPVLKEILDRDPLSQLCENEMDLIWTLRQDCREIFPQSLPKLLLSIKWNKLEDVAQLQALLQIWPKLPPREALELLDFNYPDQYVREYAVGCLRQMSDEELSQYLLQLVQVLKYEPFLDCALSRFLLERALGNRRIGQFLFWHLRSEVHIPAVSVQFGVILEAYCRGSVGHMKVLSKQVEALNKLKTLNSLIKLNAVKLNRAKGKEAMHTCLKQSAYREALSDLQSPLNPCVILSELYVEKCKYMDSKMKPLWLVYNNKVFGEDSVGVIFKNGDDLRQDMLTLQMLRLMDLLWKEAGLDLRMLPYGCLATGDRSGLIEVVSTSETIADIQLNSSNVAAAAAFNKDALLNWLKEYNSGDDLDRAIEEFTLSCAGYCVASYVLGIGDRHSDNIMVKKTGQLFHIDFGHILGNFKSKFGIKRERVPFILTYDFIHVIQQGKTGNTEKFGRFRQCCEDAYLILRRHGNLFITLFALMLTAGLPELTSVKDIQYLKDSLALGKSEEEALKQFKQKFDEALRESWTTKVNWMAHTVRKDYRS
# T2 sequence (P27986 whole entry partner): as the sequence (P27986 whole entry partner) above
# Method in brief: as §1
# PI3Kγ = target: T3, PI3Kγ (Homo sapiens, UniProt P48736); test: In vitro determination of the PI3K enzyme inhibitory activity in the cell free assay (ADP-Glo Kinase Assay), PI3Kγ; details: ATP 30 μM, read-out: PI3K gamma inhibition
# T3 construct: purchased Millipore Ltd (Billerica, Mass.)
# T3 sequence (P48736 whole entry): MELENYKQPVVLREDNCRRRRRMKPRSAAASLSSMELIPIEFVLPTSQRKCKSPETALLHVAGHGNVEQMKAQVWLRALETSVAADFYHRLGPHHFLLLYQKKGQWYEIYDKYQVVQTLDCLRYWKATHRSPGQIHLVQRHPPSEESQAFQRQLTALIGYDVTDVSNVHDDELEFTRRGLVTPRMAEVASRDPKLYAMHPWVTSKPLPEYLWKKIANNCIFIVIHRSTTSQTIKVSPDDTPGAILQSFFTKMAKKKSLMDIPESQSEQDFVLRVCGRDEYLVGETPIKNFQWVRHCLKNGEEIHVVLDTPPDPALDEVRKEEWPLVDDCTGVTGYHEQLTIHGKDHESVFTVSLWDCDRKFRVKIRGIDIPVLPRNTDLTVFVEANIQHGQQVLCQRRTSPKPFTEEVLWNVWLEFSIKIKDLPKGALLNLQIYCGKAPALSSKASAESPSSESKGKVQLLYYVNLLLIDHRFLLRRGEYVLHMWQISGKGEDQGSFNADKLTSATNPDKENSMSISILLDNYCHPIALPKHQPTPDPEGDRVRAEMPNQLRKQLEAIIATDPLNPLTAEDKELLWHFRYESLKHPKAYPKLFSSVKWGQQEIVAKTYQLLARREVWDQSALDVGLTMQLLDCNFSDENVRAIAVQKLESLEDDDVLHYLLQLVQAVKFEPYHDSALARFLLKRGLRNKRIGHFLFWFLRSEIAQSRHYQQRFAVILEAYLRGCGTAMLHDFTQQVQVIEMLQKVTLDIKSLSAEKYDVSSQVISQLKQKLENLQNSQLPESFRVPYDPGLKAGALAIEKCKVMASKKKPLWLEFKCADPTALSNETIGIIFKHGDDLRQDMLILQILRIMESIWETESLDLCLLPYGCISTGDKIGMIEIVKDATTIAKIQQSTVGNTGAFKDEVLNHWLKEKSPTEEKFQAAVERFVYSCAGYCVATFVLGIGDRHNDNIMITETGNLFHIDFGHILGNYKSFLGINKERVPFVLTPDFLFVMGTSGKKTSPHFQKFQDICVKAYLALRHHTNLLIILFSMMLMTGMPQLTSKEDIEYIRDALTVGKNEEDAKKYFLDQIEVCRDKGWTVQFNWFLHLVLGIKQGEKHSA
# Method in brief: as §1
# PI3Kδ = target: T4, PI3Kδ (Homo sapiens, UniProt O00329); test: In vitro determination of the PI3K enzyme inhibitory activity in the cell free assay (ADP-Glo Kinase Assay), PI3Kδ; details: ATP 80 μM, read-out: PI3K delta inhibition
# T4 construct: purchased Millipore Ltd (Billerica, Mass.)
# T4 sequence (O00329 whole entry): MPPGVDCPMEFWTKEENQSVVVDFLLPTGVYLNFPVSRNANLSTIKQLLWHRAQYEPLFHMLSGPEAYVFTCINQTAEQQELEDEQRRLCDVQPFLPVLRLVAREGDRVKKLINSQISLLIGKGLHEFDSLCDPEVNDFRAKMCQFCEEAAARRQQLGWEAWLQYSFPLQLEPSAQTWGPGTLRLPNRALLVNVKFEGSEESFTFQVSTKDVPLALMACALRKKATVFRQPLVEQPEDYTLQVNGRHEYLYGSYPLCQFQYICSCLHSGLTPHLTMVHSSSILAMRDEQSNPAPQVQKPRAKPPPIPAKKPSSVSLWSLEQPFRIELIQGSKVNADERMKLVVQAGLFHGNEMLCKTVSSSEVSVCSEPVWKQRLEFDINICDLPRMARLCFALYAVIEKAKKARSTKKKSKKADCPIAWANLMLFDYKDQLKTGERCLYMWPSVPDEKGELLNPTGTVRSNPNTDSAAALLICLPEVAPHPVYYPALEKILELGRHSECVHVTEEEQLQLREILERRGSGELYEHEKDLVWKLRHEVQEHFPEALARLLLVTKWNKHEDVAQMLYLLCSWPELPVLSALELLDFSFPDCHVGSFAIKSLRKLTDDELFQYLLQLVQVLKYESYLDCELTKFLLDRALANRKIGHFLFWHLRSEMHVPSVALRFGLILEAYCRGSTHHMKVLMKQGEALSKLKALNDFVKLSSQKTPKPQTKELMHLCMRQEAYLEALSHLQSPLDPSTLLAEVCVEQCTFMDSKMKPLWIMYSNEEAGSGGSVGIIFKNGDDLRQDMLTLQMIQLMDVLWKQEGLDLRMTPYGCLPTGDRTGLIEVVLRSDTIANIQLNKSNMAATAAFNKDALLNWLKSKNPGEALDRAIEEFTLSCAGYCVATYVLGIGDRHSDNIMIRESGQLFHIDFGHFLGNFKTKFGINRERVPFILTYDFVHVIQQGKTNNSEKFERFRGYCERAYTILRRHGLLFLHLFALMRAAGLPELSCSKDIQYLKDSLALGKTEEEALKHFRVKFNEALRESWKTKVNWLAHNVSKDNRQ
# T4 sequence (P27986 whole entry partner): as the sequence (P27986 whole entry partner) above
# Method in brief: as §1
SMILES,IC50 (PI3Kα),IC50 (PI3Kβ),IC50 (PI3Kγ),IC50 (PI3Kδ)
"Nc1ncnc2c1ncn2Cc1cc2ccccn2c1-c1cccc(F)c1 [Example 4, 9-{[3-(3-fluorophenyl)indolizin-2-yl]methyl}-9H-purin-6-amine]",> 1000 nM,> 1000 nM,> 1000 nM,10 to 1000 nM
"c1ccn2cc(CNc3ncnc4[nH]cnc34)cc2c1 [Example 21, N-(indolizin-2-ylmethyl)-9H-purin-6-amine]",> 1000 nM,10 to 1000 nM,> 1000 nM,10 to 1000 nM
"c1ccc(-c2c(CNc3ncnc4[nH]cnc34)cn3ccccc23)cc1 [Example 17, N-[(1-phenylindolizin-2-yl)methyl]-9H-purin-6-amine]",> 1000 nM,> 1000 nM,> 1000 nM,> 1000 nM
"CC(c1cc2ccccn2c1-c1ccccc1F)n1nc(-c2cc(O)cc(F)c2)c2c(N)ncnc21 (centres unmarked) [Example 86, 3-(4-amino-1-{1-[3-(2-fluorophenyl)indolizin-2-yl]ethyl}-1H-pyrazolo[3,4-d]pyrimidin-3-yl)-5-fluoro-phenol]",> 1000 nM,> 1000 nM,10 to 1000 nM,10 to 1000 nM
"CC(c1cc2ccccn2c1-c1cccc(CN2CCOCC2)n1)n1nc(-c2cc(O)cc(F)c2)c2c(N)ncnc21 (centres unmarked) [Example 110, 3-[4-amino-1-(1-{3-[6-(morpholin-4-ylmethyl)pyridin-2-yl]indolizin-2-yl}ethyl)-1H-pyrazolo[3,4-d]-pyrimidin-3-yl]-5-fluorophenol]",> 1000 nM,10 to 1000 nM,> 1000 nM,< 10 nM
"Nc1ncnc2c1ncn2Cc1cc2ccccn2c1-c1ccccc1 [Example 1, 9-[(3-phenylindolizin-2-yl)methyl]-9H-purin-6-amine]",> 1000 nM,> 1000 nM,> 1000 nM,> 1000 nM
"CC(Nc1ncnc(N)c1C#N)c1cc2ccccn2c1-c1ccsc1 (centres unmarked) [Example 38, 4-amino-6-({1-[3-(thiophen-3-yl)indolizin-2-yl]ethyl}amino)pyrimidine-5-carbonitrile]",> 1000 nM,> 1000 nM,> 1000 nM,10 to 1000 nM
"CC(c1cc2ccccn2c1-c1ccccn1)n1nc(-c2cccc(F)c2)c2c(N)ncnc21 (centres unmarked) [Example 66, 3-(3-fluorophenyl)-1-{1-[3-(pyridin-2-yl)indolizin-2-yl]ethyl}-1H-pyrazolo[3,4-d]pyrimidin-4-amine]",> 1000 nM,10 to 1000 nM,> 1000 nM,10 to 1000 nM
"CC(c1cc2ccccn2c1-c1ccccn1)n1nc(-c2ccc(O)c(F)c2)c2c(N)ncnc21 (centres unmarked) [Example 70, 4-(4-amino-1-{1-[3-(pyridin-2-yl)indolizin-2-yl]ethyl}-1H-pyrazolo[3,4-d]pyrimidin-3-yl)-2-fluorophenol]",> 1000 nM,> 1000 nM,10 to 1000 nM,10 to 1000 nM
"N#Cc1c(N)ncnc1NCc1cc2ccccn2c1-c1ccccc1 [Example 22, 4-amino-6-{[(3-phenylindolizin-2-yl)methyl]amino}pyrimidine-5-carbonitrile]",> 1000 nM,> 1000 nM,> 1000 nM,10 to 1000 nM
"CC(c1cc2ccccn2c1C1=CCNCC1)n1nc(-c2cc(O)cc(F)c2)c2c(N)ncnc21 (centres unmarked) [Example 101, 3-(4-amino-1-{1-[3-(1,2,3,6-tetrahydropyridin-4-yl)indolizin-2-yl]ethyl}-1H-pyrazolo[3,4-d]pyrimidin-3-yl)-5-fluorophenol]",> 1000 nM,10 to 1000 nM,> 1000 nM,10 to 1000 nM

# Results, then the molecule that gave them:
IC50 (PI3Kα),IC50 (PI3Kβ),IC50 (PI3Kγ),IC50 (PI3Kδ),SMILES
10 to 1000 nM,10 to 1000 nM,10 to 1000 nM,< 10 nM,"C[C@@H](c1cc2ccccn2c1-c1ccncc1)n1nc(-c2cc(O)cc(F)c2)c2c(N)ncnc21 (single isomer, unassigned) [Example 83, 3-(4-amino-1-{1-[3-(pyridin-4-yl)indolizin-2-yl]ethyl}-1H-pyrazolo[3,4-d]pyrimidin-3-yl)-5-fluorophenol]"
10 to 1000 nM,10 to 1000 nM,> 1000 nM,10 to 1000 nM,"CC(c1cc2ccccn2c1-c1ccc(=O)n(CCN2CCOCC2)n1)n1nc(-c2cc(O)cc(F)c2)c2c(N)ncnc21 (centres unmarked) [Example 136, 6-(2-{1-[4-amino-3-(3-fluoro-5-hydroxyphenyl)-1H-pyrazolo[3,4-d]pyrimidin-1-yl]-ethyl}indolizin-3-yl)-2-[2-(morpholin-4-yl)ethyl]-2,3-dihydropyridazin-3-one]"
> 1000 nM,> 1000 nM,> 1000 nM,> 1000 nM,"Nc1ncnc2c1ncn2Cc1cn2ccccc2c1-c1cccc(F)c1 [Example 11, 9-{[1-(3-fluorophenyl)indolizin-2-yl]methyl}-9H-purin-6-amine]"
> 1000 nM,10 to 1000 nM,10 to 1000 nM,10 to 1000 nM,"CC(c1cc2ccccn2c1-c1ccccn1)n1nc(-c2cccc(O)c2)c2c(N)ncnc21 (centres unmarked) [Example 61, 3-(4-amino-1-{1-[3-(pyridin-2-yl)indolizin-2-yl]ethyl}-1H-pyrazolo[3,4-d]pyrimidin-3-yl)phenol]"
> 1000 nM,> 1000 nM,> 1000 nM,10 to 1000 nM,"CC(Nc1ncnc(N)c1C(F)(F)F)c1cc2ccccn2c1-c1ccccn1 (centres unmarked) [Example 49, 4-N-{1-[3-(pyridin-2-yl)indolizin-2-yl]ethyl}-5-(trifluoromethyl)pyrimidine-4,6-diamine]"
> 1000 nM,10 to 1000 nM,> 1000 nM,< 10 nM,"CC(Nc1ncnc(N)c1/C=N/O)c1cc2ccccn2c1-c1ccccn1 (centres unmarked) [Example 58, 5-[(1E)-(hydroxyimino)methyl]-4-N-{1-[3-(pyridin-2-yl)indolizin-2-yl]ethyl}pyrimidine-4,6-diamine]"
> 1000 nM,> 1000 nM,> 1000 nM,10 to 1000 nM,"Cc1c(N)ncnc1NC(C)c1cc2ccccn2c1-c1ccccn1 (centres unmarked) [Example 50, 5-methyl-4-N-{1-[3-(pyridin-2-yl)indolizin-2-yl]ethyl}pyrimidine-4,6-diamine]"
> 1000 nM,10 to 1000 nM,> 1000 nM,< 10 nM,"CC(c1c(C#N)c2ccccn2c1-c1cccc(CN(C)C)c1)n1nc(-c2cc(O)cc(F)c2)c2c(N)ncnc21 (centres unmarked) [Example 127, 2-{1-[4-amino-3-(3-fluoro-5-hydroxyphenyl)-1H-pyrazolo[3,4-d]pyrimidin-1-yl]-ethyl}-3-{3-[(dimethylamino)-methyl]phenyl}indolizine-1-carbonitrile]"
> 1000 nM,> 1000 nM,> 1000 nM,> 1000 nM,"Fc1cccc(-c2c(CNc3ncnc4[nH]cnc34)cc3ccccn23)c1 [Example 15, N-{[3-(3-fluorophenyl)indolizin-2-yl]methyl}-9H-purin-6-amine]"
> 1000 nM,10 to 1000 nM,> 1000 nM,10 to 1000 nM,"CC(Nc1ncnc(N)c1C#N)c1cc2ccccn2c1C1=CCOCC1 (centres unmarked) [Example 42, 4-amino-6-({1-[3-(3,6-dihydro-2H-pyran-4-yl)indolizin-2-yl]ethyl}amino)pyrimidine-5-carbonitrile]"
> 1000 nM,10 to 1000 nM,10 to 1000 nM,< 10 nM,"CC(c1cc2ccccn2c1-c1ccn(CCN2CCOCC2)n1)n1nc(-c2cc(O)cc(F)c2)c2c(N)ncnc21 (centres unmarked) [Example 150, 3-{4-amino-1-[1-(3-{1-[2-(morpholin-4-yl)ethyl]-1H-pyrazol-3-yl}indolizin-2-yl)ethyl]-1H-pyrazolo-[3,4-d]pyrimidin-3-yl}-5-fluorophenol]"
10 to 1000 nM,10 to 1000 nM,10 to 1000 nM,< 10 nM,"C[C@H](c1cc2ccccn2c1-c1ccc(CN2CCN(C)CC2)cn1)n1nc(-c2cc(O)cc(F)c2)c2c(N)ncnc21 (single isomer, unassigned) [Example 114a, 3-{4-amino-1-[1-(3-{5-[(4-methylpiperazin-1-yl)methyl]pyridin-2-yl}indolizin-2-yl)ethyl]-1H-pyrazolo[3,4-d]pyrimidin-3-yl}-5-fluorophenol]"
> 1000 nM,10 to 1000 nM,> 1000 nM,< 10 nM,"CC(c1cc2ccccn2c1-c1ccc(CN2CCOCC2)cn1)n1nc(-c2cc(O)cc(F)c2)c2c(N)ncnc21 (centres unmarked) [Example 108, 3-[4-amino-1-(1-{3-[5-(morpholin-4-ylmethyl)pyridin-2-yl]indolizin-2-yl}ethyl)-1H-pyrazolo[3,4-d]pyrimidin-3-yl]-5-fluorophenol]"
10 to 1000 nM,10 to 1000 nM,10 to 1000 nM,< 10 nM,"CC(c1cc2ccccn2c1-c1cncs1)n1nc(-c2cc(O)cc(F)c2)c2c(N)ncnc21 (centres unmarked) [Example 94, 3-(4-amino-1-{1-[3-(1,3-thiazol-5-yl)indolizin-2-yl]ethyl}-1H-pyrazolo[3,4-d]pyrimidin-3-yl)-5-fluorophenol]"
10 to 1000 nM,10 to 1000 nM,10 to 1000 nM,10 to 1000 nM,"CC(c1cc2ccccn2c1CN1C[C@H]2CN(C)C[C@H]2C1)n1nc(-c2cc(O)cc(F)c2)c2c(N)ncnc21 (stereo partly drawn) [Example 145, 3-{1-[1-(3-{[(3aR,6aS)-5-methyl-octahydropyrrolo[3,4-c]pyrrol-2-yl]methyl}indolizin-2-yl)ethyl]-4-amino-1H-pyrazolo[3,4-d]pyrimidin-3-yl}-5-fluorophenol]"
